target: T1, Furin (Homo sapiens, UniProt P09958); test: fluorogenic AMC peptide cleavage assay, […] dose response, not sigmoidal; assay type: cell-based
T1 construct: soluble Furin (sFur), truncated before its transmembrane domain (BTMD)
T1 sequence (P09958 108-715): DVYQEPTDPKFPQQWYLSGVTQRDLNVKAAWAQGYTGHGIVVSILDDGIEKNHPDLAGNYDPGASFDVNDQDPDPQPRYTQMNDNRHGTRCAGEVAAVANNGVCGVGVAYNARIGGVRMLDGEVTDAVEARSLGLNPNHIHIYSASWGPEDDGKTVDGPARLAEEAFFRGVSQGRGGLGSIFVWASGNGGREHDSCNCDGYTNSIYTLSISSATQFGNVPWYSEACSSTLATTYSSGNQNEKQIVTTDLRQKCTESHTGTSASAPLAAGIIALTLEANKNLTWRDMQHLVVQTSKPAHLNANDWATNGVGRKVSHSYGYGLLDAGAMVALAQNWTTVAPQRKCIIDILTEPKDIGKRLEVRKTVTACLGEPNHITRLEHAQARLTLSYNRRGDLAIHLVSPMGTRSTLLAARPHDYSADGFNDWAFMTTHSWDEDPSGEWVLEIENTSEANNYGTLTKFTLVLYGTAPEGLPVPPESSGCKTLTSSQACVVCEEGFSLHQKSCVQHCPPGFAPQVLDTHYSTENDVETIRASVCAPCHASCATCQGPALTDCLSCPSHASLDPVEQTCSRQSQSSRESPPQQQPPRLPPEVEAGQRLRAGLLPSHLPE

| SMILES | fluorogenic AMC peptide cleavage assay, 2.5-100 μg/mL dose response, not sigmoid |
| --- | --- |
| Cc1ccc(Cl)cc1N(CCC(=O)O)c1nc2c(s1)C(=O)c1ccccc1C2=O [P5, 3-((5-Chloro-2-methylphenyl)(4,9-dioxo-4,9-dihydronaphtho[2,3-d]thiazol-2-yl)amino)propanoic acid] | P3, P5, P7, P9, P13, and P16—were confirmed as novel Furin inhibitors, showing typical dose-dependent activity |
| O=C(O)CCN(c1ccc(Cl)cc1)c1nc2c(s1)C(=O)c1ccccc1C2=O [P9, 3-((4-Chlorophenyl)(4,9-dioxo-4,9-dihydronaphtho[2,3-d]thiazol-2-yl)amino)propanoic acid] | P3, P5, P7, P9, P13, and P16—were confirmed as novel Furin inhibitors, showing typical dose-dependent activity |
| CCOC(=O)C=C(C)n1c2c(=O)c3ccccc3c(=O)c=2oc2ccc([N+](=O)[O-])cc21 [P13, Ethyl 3-(2-nitro-6,11-dioxo-6,11-dihydro-12H-benzo[b]phenoxazin-12-yl)but-2-enoate] | P3, P5, P7, P9, P13, and P16—were confirmed as novel Furin inhibitors, showing typical dose-dependent activity |

target: T1, Furin; test: fluorogenic AMC peptide cleavage assay, soluble furin in conditioned HEK-293T medium without further purification; assay type: biochemical

| SMILES | IC50 |
| --- | --- |
| Cc1ccc(N(CCC(=O)O)C2=NC(=O)C(=Cc3ccc(Br)s3)S2)cc1Cl [P3, 3-((5-((5-Bromothiophen-2-yl)methylene)-4-oxo-4,5-dihydrothiazol-2-yl)(3-chloro-4-methylphenyl)amino)propanoic acid] | 35 µM |
| CN(C)c1ccc(C=C2SC(N(CCC(=O)O)c3ccc(Cl)cc3)=NC2=O)cc1 [P7, 3-((4-Chlorophenyl)(5-(4-(dimethylamino)benzylidene)-4-oxo-4,5-dihydrothiazol-2-yl)amino)propanoic acid] | 62 µM |
| Cc1ccc(N(CCC(=O)O)C2=NC(=O)C(=Cc3cccs3)S2)cc1Cl [P16, 3-((3-Chloro-4-methylphenyl)(4-oxo-5-(thiophen-2-ylmethylene)-4,5-dihydrothiazol-2-yl)amino)propanoic acid] | 79 µM |

Source: article PMC11121672, “Screening of Small-Molecule Libraries Using SARS-CoV-2-Derived Sequences Identifies Novel Furin Inhibitors” (International Journal of Molecular Sciences, 2024)
